Data published in patent US11787780B2 (CORCEPT THERAPEUTICS INCORPORATED, priority 2020, dated 2023).
pIC50, pKi: −log10 of the molar value.

Key:
[1] = system: induction of TAT by dexamethasone in HepG2 cells; assay: Hep G2 TAT assay (inhibition of dexamethasone-induced TAT); assay type: cell-based, human; conditions: challenge of 100 nM dexamethasone, IC50 converted to Ki by Cheng and Prusoff equation
[2] = biological target: glucocorticoid receptor (GR) recombinant ligand binding domain (LBD) (Homo sapiens (Human), UniProt P04150); assay: GR binding fluorescence polarisation (FP) assay; conditions: displacement of fluorescently tagged ligand
Sequence of glucocorticoid receptor (GR) recombinant ligand binding domain (LBD) (P04150 524-758): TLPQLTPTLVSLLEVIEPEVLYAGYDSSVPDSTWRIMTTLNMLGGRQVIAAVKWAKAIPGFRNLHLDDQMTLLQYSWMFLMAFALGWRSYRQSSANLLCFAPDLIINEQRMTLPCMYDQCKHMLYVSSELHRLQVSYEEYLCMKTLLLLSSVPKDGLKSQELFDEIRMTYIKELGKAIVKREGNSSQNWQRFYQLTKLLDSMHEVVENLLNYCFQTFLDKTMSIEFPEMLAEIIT
Experimental: Binding of test compounds to the glucocorticoid receptor (GR) is determined using a fluorescence polarisation (FP) assay utilising a recombinant ligand binding domain (LBD) of GR. The test compounds are assessed by their ability to displace a fluorescently tagged ligand and detection of the resulting decrease in fluorescence polarisation.

| SMILES | pKi [1] | pIC50 [2] |
| --- | --- | --- |
| Cc1cc2c(cnn2-c2ccc(=O)n(C)c2)cc1C1(Cc2ccccc2)CCN(S(=O)(=O)c2c(F)cccc2F)C1 (stereo not shown) [Example 315, 5-(5-(3-benzyl-1-((2,6-difluorophenyl)sulfonyl)pyrrolidin-3-yl)-6-methyl-1H-indazol-1-yl)-1-methylpyridin-2(1H)-one] | 7.54 | 8.17 |
| CCOC(=O)N1CCN(c2cc3cnn(-c4ccc(F)cc4)c3cc2C)CC12CC2 [Example 103] | 5.77 | 6.87 |
| Cc1cc2c(cnn2-c2ccc(=O)n(C)c2)cc1C1(Cc2ccccc2)CCN(C(=O)C(C)(F)F)C1 (stereo not shown) [Example 328, 5-(5-(3-benzyl-1-(2,2-difluoropropanoyl)pyrrolidin-3-yl)-6-methyl-1H-indazol-1-yl)-1-methylpyridin-2(1H)-one] | 6.96 | 7.74 |
| Cc1cc2c(cnn2-c2ccc(=O)n(C)c2)cc1C1(Cc2ccccc2)CCN(C(=O)c2ccsc2)C1 (stereo not shown) [Example 329, 5-(5-(3-benzyl-1-(thiophene-3-carbonyl)pyrrolidin-3-yl)-6-methyl-1H-indazol-1-yl)-1-methylpyridin-2(1H)-one] | 6.85 | 8.00 |
| Cc1cc2c(cnn2-c2cccc(C(=O)NC3CCOC3)c2)cc1N1CCN(S(C)(=O)=O)C2(CC2)C1 (stereo not shown) [Example 85] | 5.85 | 6.79 |
| CCCn1cc(S(=O)(=O)NC2(C)CCN(c3cc4cnn(-c5ccc(F)cc5)c4cc3C)C2)cn1 (stereo not shown) [Example 120] | 6.66 | 8.52 |
| CC(=O)N1CCC(Cc2ccc(F)cc2)(c2cc3cnn(-c4ccc(F)cc4)c3cc2C)C1 (stereo not shown) [Example 191, 1-(3-(4-fluorobenzyl)-3-(1-(4-fluorophenyl)-6-methyl-1H-indazol-5-yl)pyrrolidin-1-yl)ethan-1-one] | 7.21 | 8.22 |
| Cc1cc2c(cnn2-c2ccc(F)cc2)cc1C1(Cc2cccc(C(F)(F)F)c2)CCN(S(=O)(=O)c2cnn(C)c2)C1 (stereo not shown) [Example 176] | 7.48 | 7.22 |
| Cc1cc2c(cnn2-c2ccc(=O)n(C)c2)cc1C1(Cc2ccccc2)CCN(S(=O)(=O)c2cccc(F)c2)C1 (stereo not shown) [Example 302, 5-(5-(3-benzyl-1-((3-fluorophenyl)sulfonyl)pyrrolidin-3-yl)-6-methyl-1H-indazol-1-yl)-1-methylpyridin-2(1H)-one] | 7.57 | 7.92 |
| Cc1cc2c(cnn2-c2cc(C)c(=O)n(C)c2)cc1C1(Cc2ccccc2)CCN(S(=O)(=O)c2ccc(F)c(F)c2)C1 (stereo not shown) [Example 271, 5-(5-(3-benzyl-1-((3,4-difluorophenyl)sulfonyl)pyrrolidin-3-yl)-6-methyl-1H-indazol-1-yl)-1,3-dimethylpyridin-2(1H)-one] | 7.26 | 7.70 |
| Cc1cc2c(cnn2-c2cc(C)c(=O)n(C)c2)cc1C1(Cc2ccccc2)CCN(S(=O)(=O)c2cnn(C)n2)C1 (stereo not shown) [Example 237, 5-(5-(3-benzyl-1-((2-methyl-2H-1,2,3-triazol-4-yl)sulfonyl)pyrrolidin-3-yl)-6-methyl-1H-indazol-1-yl)-1,3-dimethylpyridin-2(1H)-one] | 7.66 | 8.32 |
| Cc1cc2c(cnn2-c2ccc(=O)n(C)c2)cc1C1(Cc2ccccc2)CCN(C(=O)C2(C(F)(F)F)CC2)C1 (stereo not shown) [Example 330, 5-(5-(3-benzyl-1-(1-(trifluoromethyl)cyclopropane-1-carbonyl)pyrrolidin-3-yl)-6-methyl-1H-indazol-1-yl)-1-methylpyridin-2(1H)-one] | 6.70 | 7.80 |
| CCCn1cc(S(=O)(=O)N2CC[C@](Cc3ccccc3)(c3cc4cnn(-c5ccc(F)cc5)c4cc3C)C2)cn1 [Example 18, (R)-5-(3-benzyl-1-((1-propyl-1H-pyrazol-4-yl)sulfonyl)pyrrolidin-3-yl)-1-(4-fluorophenyl)-6-methyl-1H-indazole] | 8.05 | 7.62 |
| CCCn1cc(S(=O)(=O)N2CCC(Cc3ccccc3)(c3cc4cnn(-c5ccc(F)cc5)c4cc3C(C)C)C2)cn1 (stereo not shown) [Example 165] | 7.43 | 7.14 |
